Experimental data as given in patent US20140348819A1, “Methods of Treating Cancer” (Dana-Farber Cancer Institute, Inc., priority 2011, published 2014).

Test system: six V600E BRAF melanoma cell lines
Assay: Screening of recombinant RTK ligands for ability to confer resistance to BRAFi (PLX4720) or MEKi (PD184352) (Table 4)
Format: cell-based, human
Set-up: ability of recombinant RTK ligand to confer resistance / ability of recombinant RTK ligand to confer resistance (screening value): scale not given here
Experimental: HGF is the only one that can substantially confer drug resistance to the cell lines.
The complexity of the tumor microenvironment is much greater than an in vitro co-culture system. Therefore, the inventors explored whether the activation of other RTKs could result in a similar resistance as that observed with the activation of MET. To this end, six V600E BRAF melanoma cell lines were tested for their resistance to either BRAFi (PLX4720) or MEKi (PD184352) after the addition of 22 RTK ligands that have the potential of activating almost all known RTKs. […] The activation of a selected subset of these RTKs was confirmed by western blotting and by high throughput tyrosine kinase phosphorylation profiling.

[1] = A2058, PD184352 - 1 uM, ligand 0.4 ng/ml
[2] = A2058, PD184352 - 1 uM, ligand 1.6 ng/ml
[3] = A2058, PD184352 - 1 uM, ligand 6.25 ng/ml
[4] = A2058, PD184352 - 1 uM, ligand 25 ng/ml
[5] = A2058, PD184352 - 1 uM, ligand 100 ng/ml
[6] = A2058, PLX4720 - 2 uM, ligand 0.4 ng/ml
[7] = A2058, PLX4720 - 2 uM, ligand 1.6 ng/ml
[8] = A2058, PLX4720 - 2 uM, ligand 6.25 ng/ml
[9] = A2058, PLX4720 - 2 uM, ligand 25 ng/ml
[10] = A2058, PLX4720 - 2 uM, ligand 100 ng/ml
[11] = C32, PD184352 - 1 uM, ligand 0.4 ng/ml
[12] = C32, PD184352 - 1 uM, ligand 1.6 ng/ml
[13] = C32, PD184352 - 1 uM, ligand 6.25 ng/ml
[14] = C32, PD184352 - 1 uM, ligand 25 ng/ml
[15] = C32, PD184352 - 1 uM, ligand 100 ng/ml
[16] = C32, PLX4720 - 2 uM, ligand 0.4 ng/ml
[17] = C32, PLX4720 - 2 uM, ligand 1.6 ng/ml
[18] = C32, PLX4720 - 2 uM, ligand 6.25 ng/ml
[19] = C32, PLX4720 - 2 uM, ligand 25 ng/ml
[20] = C32, PLX4720 - 2 uM, ligand 100 ng/ml
[21] = Colo 829, PD184352 - 1 uM, ligand 0.4 ng/ml
[22] = Colo 829, PD184352 - 1 uM, ligand 1.6 ng/ml
[23] = Colo 829, PD184352 - 1 uM, ligand 6.25 ng/ml
[24] = Colo 829, PD184352 - 1 uM, ligand 25 ng/ml
[25] = Colo 829, PD184352 - 1 uM, ligand 100 ng/ml
[26] = Colo 829, PLX4720 - 2 uM, ligand 0.4 ng/ml
[27] = Colo 829, PLX4720 - 2 uM, ligand 1.6 ng/ml
[28] = Colo 829, PLX4720 - 2 uM, ligand 6.25 ng/ml
[29] = Colo 829, PLX4720 - 2 uM, ligand 25 ng/ml
[30] = Colo 829, PLX4720 - 2 uM, ligand 100 ng/ml
[31] = G-361, PD184352 - 1 uM, ligand 0.4 ng/ml
[32] = G-361, PD184352 - 1 uM, ligand 1.6 ng/ml
[33] = G-361, PD184352 - 1 uM, ligand 6.25 ng/ml
[34] = G-361, PD184352 - 1 uM, ligand 25 ng/ml
[35] = G-361, PD184352 - 1 uM, ligand 100 ng/ml
[36] = G-361, PLX4720 - 2 uM, ligand 0.4 ng/ml
[37] = G-361, PLX4720 - 2 uM, ligand 1.6 ng/ml
[38] = G-361, PLX4720 - 2 uM, ligand 6.25 ng/ml
[39] = G-361, PLX4720 - 2 uM, ligand 25 ng/ml
[40] = G-361, PLX4720 - 2 uM, ligand 100 ng/ml
[41] = SK-MEL-5, PD184352 - 1 uM, ligand 0.4 ng/ml
[42] = SK-MEL-5, PD184352 - 1 uM, ligand 1.6 ng/ml
[43] = SK-MEL-5, PD184352 - 1 uM, ligand 6.25 ng/ml
[44] = SK-MEL-5, PD184352 - 1 uM, ligand 25 ng/ml
[45] = SK-MEL-5, PD184352 - 1 uM, ligand 100 ng/ml
[46] = SK-MEL-5, PLX4720 - 2 uM, ligand 0.4 ng/ml
[47] = SK-MEL-5, PLX4720 - 2 uM, ligand 1.6 ng/ml
[48] = SK-MEL-5, PLX4720 - 2 uM, ligand 6.25 ng/ml
[49] = SK-MEL-5, PLX4720 - 2 uM, ligand 25 ng/ml
[50] = SK-MEL-5, PLX4720 - 2 uM, ligand 100 ng/ml
[51] = SK-MEL-28, PD184352 - 1 uM, ligand 0.4 ng/ml
[52] = SK-MEL-28, PD184352 - 1 uM, ligand 1.6 ng/ml
[53] = SK-MEL-28, PD184352 - 1 uM, ligand 6.25 ng/ml
[54] = SK-MEL-28, PD184352 - 1 uM, ligand 25 ng/ml
[55] = SK-MEL-28, PD184352 - 1 uM, ligand 100 ng/ml
[56] = SK-MEL-28, PLX4720 - 2 uM, ligand 0.4 ng/ml
[57] = SK-MEL-28, PLX4720 - 2 uM, ligand 1.6 ng/ml
[58] = SK-MEL-28, PLX4720 - 2 uM, ligand 6.25 ng/ml
[59] = SK-MEL-28, PLX4720 - 2 uM, ligand 25 ng/ml
[60] = SK-MEL-28, PLX4720 - 2 uM, ligand 100 ng/ml

Substance: NGF
- ability of recombinant RTK ligand to confer resistance [1]: 0.98
- ability of recombinant RTK ligand to confer resistance [2]: 0.95
- ability of recombinant RTK ligand to confer resistance [3]: 1.09
- ability of recombinant RTK ligand to confer resistance [4]: 0.99
- ability of recombinant RTK ligand to confer resistance [5]: 0.99
- ability of recombinant RTK ligand to confer resistance [6]: 1.04
- ability of recombinant RTK ligand to confer resistance [7]: 1.02
- ability of recombinant RTK ligand to confer resistance [8]: 1.06
- ability of recombinant RTK ligand to confer resistance [9]: 1.07
- ability of recombinant RTK ligand to confer resistance [10]: 0.98
- ability of recombinant RTK ligand to confer resistance [11]: 1.00
- ability of recombinant RTK ligand to confer resistance [12]: 1.07
- ability of recombinant RTK ligand to confer resistance [13]: 1.07
- ability of recombinant RTK ligand to confer resistance [14]: 0.98
- ability of recombinant RTK ligand to confer resistance [15]: 1.03
- ability of recombinant RTK ligand to confer resistance [16]: 0.98
- ability of recombinant RTK ligand to confer resistance [17]: 0.98
- ability of recombinant RTK ligand to confer resistance [18]: 1.03
- ability of recombinant RTK ligand to confer resistance [19]: 0.97
- ability of recombinant RTK ligand to confer resistance [20]: 0.87
- ability of recombinant RTK ligand to confer resistance [21]: 1.04
- ability of recombinant RTK ligand to confer resistance [22]: 1.03
- ability of recombinant RTK ligand to confer resistance [23]: 1.04
- ability of recombinant RTK ligand to confer resistance [24]: 0.94
- ability of recombinant RTK ligand to confer resistance [25]: 1.02
- ability of recombinant RTK ligand to confer resistance [26]: 0.96
- ability of recombinant RTK ligand to confer resistance [27]: 0.96
- ability of recombinant RTK ligand to confer resistance [28]: 1.02
- ability of recombinant RTK ligand to confer resistance [29]: 0.96
- ability of recombinant RTK ligand to confer resistance [30]: 1.03
- ability of recombinant RTK ligand to confer resistance [31]: 1.09
- ability of recombinant RTK ligand to confer resistance [32]: 0.78
- ability of recombinant RTK ligand to confer resistance [33]: 0.97
- ability of recombinant RTK ligand to confer resistance [34]: 0.85
- ability of recombinant RTK ligand to confer resistance [35]: 0.94
- ability of recombinant RTK ligand to confer resistance [36]: 1.10
- ability of recombinant RTK ligand to confer resistance [37]: 0.87
- ability of recombinant RTK ligand to confer resistance [38]: 0.91
- ability of recombinant RTK ligand to confer resistance [39]: 0.92
- ability of recombinant RTK ligand to confer resistance [40]: 0.94
- ability of recombinant RTK ligand to confer resistance [41]: 1.03
- ability of recombinant RTK ligand to confer resistance [42]: 1.04
- ability of recombinant RTK ligand to confer resistance [43]: 0.96
- ability of recombinant RTK ligand to confer resistance [44]: 1.07
- ability of recombinant RTK ligand to confer resistance [45]: 1.09
- ability of recombinant RTK ligand to confer resistance [46]: 1.00
- ability of recombinant RTK ligand to confer resistance [47]: 1.03
- ability of recombinant RTK ligand to confer resistance [48]: 0.85
- ability of recombinant RTK ligand to confer resistance [49]: 0.93
- ability of recombinant RTK ligand to confer resistance [50]: 0.92
- ability of recombinant RTK ligand to confer resistance [51]: 0.91
- ability of recombinant RTK ligand to confer resistance [52]: 0.92
- ability of recombinant RTK ligand to confer resistance [53]: 0.99
- ability of recombinant RTK ligand to confer resistance [54]: 0.96
- ability of recombinant RTK ligand to confer resistance [55]: 1.08
- ability of recombinant RTK ligand to confer resistance [56]: 0.89
- ability of recombinant RTK ligand to confer resistance [57]: 0.97
- ability of recombinant RTK ligand to confer resistance [58]: 1.05
- ability of recombinant RTK ligand to confer resistance [59]: 1.00
- ability of recombinant RTK ligand to confer resistance [60]: 1.12

Substance: NT3
- ability of recombinant RTK ligand to confer resistance [1]: 1.04
- ability of recombinant RTK ligand to confer resistance [2]: 1.13
- ability of recombinant RTK ligand to confer resistance [3]: 1.08
- ability of recombinant RTK ligand to confer resistance [4]: 1.01
- ability of recombinant RTK ligand to confer resistance [5]: 0.90
- ability of recombinant RTK ligand to confer resistance [6]: 1.02
- ability of recombinant RTK ligand to confer resistance [7]: 1.16
- ability of recombinant RTK ligand to confer resistance [8]: 1.09
- ability of recombinant RTK ligand to confer resistance [9]: 1.02
- ability of recombinant RTK ligand to confer resistance [10]: 0.93
- ability of recombinant RTK ligand to confer resistance [11]: 0.98
- ability of recombinant RTK ligand to confer resistance [12]: 1.02
- ability of recombinant RTK ligand to confer resistance [13]: 0.93
- ability of recombinant RTK ligand to confer resistance [14]: 0.95
- ability of recombinant RTK ligand to confer resistance [15]: 0.88
- ability of recombinant RTK ligand to confer resistance [16]: 1.00
- ability of recombinant RTK ligand to confer resistance [17]: 1.03
- ability of recombinant RTK ligand to confer resistance [18]: 0.91
- ability of recombinant RTK ligand to confer resistance [19]: 1.00
- ability of recombinant RTK ligand to confer resistance [20]: 0.95
- ability of recombinant RTK ligand to confer resistance [21]: 1.07
- ability of recombinant RTK ligand to confer resistance [22]: 1.16
- ability of recombinant RTK ligand to confer resistance [23]: 1.02
- ability of recombinant RTK ligand to confer resistance [24]: 1.07
- ability of recombinant RTK ligand to confer resistance [25]: 1.03
- ability of recombinant RTK ligand to confer resistance [26]: 1.03
- ability of recombinant RTK ligand to confer resistance [27]: 1.15
- ability of recombinant RTK ligand to confer resistance [28]: 1.00
- ability of recombinant RTK ligand to confer resistance [29]: 1.09
- ability of recombinant RTK ligand to confer resistance [30]: 1.04
- ability of recombinant RTK ligand to confer resistance [31]: 0.98
- ability of recombinant RTK ligand to confer resistance [32]: 0.98
- ability of recombinant RTK ligand to confer resistance [33]: 1.01
- ability of recombinant RTK ligand to confer resistance [34]: 1.05
- ability of recombinant RTK ligand to confer resistance [35]: 0.88
- ability of recombinant RTK ligand to confer resistance [36]: 0.95
- ability of recombinant RTK ligand to confer resistance [37]: 0.98
- ability of recombinant RTK ligand to confer resistance [38]: 1.00
- ability of recombinant RTK ligand to confer resistance [39]: 0.98
- ability of recombinant RTK ligand to confer resistance [40]: 0.84
- ability of recombinant RTK ligand to confer resistance [41]: 1.02
- ability of recombinant RTK ligand to confer resistance [42]: 1.08
- ability of recombinant RTK ligand to confer resistance [43]: 1.00
- ability of recombinant RTK ligand to confer resistance [44]: 0.94
- ability of recombinant RTK ligand to confer resistance [45]: 1.04
- ability of recombinant RTK ligand to confer resistance [46]: 0.99
- ability of recombinant RTK ligand to confer resistance [47]: 1.02
- ability of recombinant RTK ligand to confer resistance [48]: 0.93
- ability of recombinant RTK ligand to confer resistance [49]: 0.98
- ability of recombinant RTK ligand to confer resistance [50]: 1.09
- ability of recombinant RTK ligand to confer resistance [51]: 1.02
- ability of recombinant RTK ligand to confer resistance [52]: 0.97
- ability of recombinant RTK ligand to confer resistance [53]: 0.99
- ability of recombinant RTK ligand to confer resistance [54]: 1.15
- ability of recombinant RTK ligand to confer resistance [55]: 0.96
- ability of recombinant RTK ligand to confer resistance [56]: 0.95
- ability of recombinant RTK ligand to confer resistance [57]: 1.05
- ability of recombinant RTK ligand to confer resistance [58]: 0.89
- ability of recombinant RTK ligand to confer resistance [59]: 1.14
- ability of recombinant RTK ligand to confer resistance [60]: 0.94
